Key:
[1] = system: benzodiazepine receptors; assay: Inhibition of 3H-flunitrazepam binding to benzodiazepine receptors in living brain, in vivo; details: mice, usually subcutaneous; 3H-flunitrazepam i.v. 15 min later, killed after further 20 min; 50% reduction of specific binding
Protocol: The ED50 value represents the dose (mg/kg) of a test substance which causes the specific binding of flunitrazepam to benzodiazepine receptors in a living brain to be reduced to 50% of the control value. Such an in vivo test is carried out as follows:
Groups of mice are injected with the test substance at different doses and usually subcutaneously. 15 minutes later, ^3 H-flunitrazepam is given intravenously to the mice and after a further 20 minutes, the mice are killed, their […] by scintillation counting. The ED50 value is determined from dose-response curves.

[2] = biological target: benzodiazepine receptors; assay: Displacement of 3H-flunitrazepam binding in vitro (rat forebrain membrane suspension); details: 3H-flunitrazepam 1.0 nM, 0° C., 25 mM KH2PO4 pH 7.1, rat forebrain, 40-60 min

Structure (SMILES)	Inhibition of 3H-flunitrazepam-binding in vivo ED50 [1] [mg/kg]	Inhibition of 3H-flunitrazepam-binding in vitro IC50 [2] [ng/mL]
CCc1noc(-c2ncn3c2CN(C)C(=O)c2ccccc2-3)n1 [3-[5-(3-ethyl-1,2,4-oxadiazole)-yl]-5,6-dihydro-5-methyl-6-oxo-4H-imidazo[1,5-a][1,4]benzodiazepine]	2.2	12
CCc1noc(-c2ncn3c2CN(C)C(=O)c2cc(F)ccc2-3)n1 [5,6-dihydro-3-[5-(3-ethyl-1,2,4-oxadiazole)-yl]-8-fluoro-5-methyl-6-oxo-4H-imidazo[1,5-a][1,4]benzodiazepine]	4.5	3.5
CCc1noc(-c2ncn3c2CN(C)C(=O)c2cc(Cl)ccc2-3)n1 [8-chloro-5,6-dihydro-3-[5-(3-ethyl-1,2,4-oxadiazole)-yl]-5-methyl-6-oxo-4H-imidazo[1,5-a][1,4]benzodiazepine]	5.9	> 10
CCOC(=O)c1ncn2c1CN(C)C(=O)c1ccccc1-2 [ethyl-5,6-dihydro-5-methyl-6-oxo-4H--imidazo[1,5-a][1,4]benzodiazepine-3-carboxylate, reference compound]	> 30	
CCOC(=O)c1ncn2c1CN(C)C(=O)c1cc(Cl)ccc1-2 [ethyl-8-chloro-5,6-dihydro-5-methyl-6-oxo-4H--imidazo[1,5-a][1,4]benzodiazepine-3-carboxylate, reference compound]	> 30	7.9

From patent publication US4507313A, “Oxadiazolyl-imidazo-[1,4]benzodiazepines and their use in treatment of diseases of the central nervous system” (A/S Ferrosan, priority 1982, dated 1985)
